Values after ≈ are worked out from the molar mass of the structure shown. Structures can show the parent of a compound that is named as a salt. Where two headings read alike, the source gives them in different places.
Columns and labels:
C. freundii 902 = assay: Minimum inhibitory concentration in vitro, agar dilution method; format: cell-based; settings: Citrobacter freundii
Text: (§1) 1. Minimum Inhibitory Concentration in vitro
(§2) The activities ascertained, minimum inhibitory concentration (MIC) in μg/ml, are compiled in Table 1 hereinafter: […]

E. cloacae 908R = assay: as above; format: cell-based; settings: Enterobacter cloacae
Text: as §1, §2

E. cloacae 908SSi = assay: as above; format: cell-based; settings: Enterobacter cloacae
Text: as §1, §2

E. coli 25922 [1] = assay: as above; format: cell-based; settings: Escherichia coli
Text: as §1, §2

K. oxytoca 1082 = assay: as above; format: cell-based; settings: Klebsiella oxytoca
Text: as §1, §2

K. pneumoniae 418 = assay: as above; format: cell-based; settings: Klebsiella pneumoniae
Text: as §1, §2

P. aeruginosa 27853 = assay: as above; format: cell-based; settings: Pseudomonas aeruginosa
Text: as §1, §2

P. aeruginosa 799/61 = assay: as above; format: cell-based; settings: Pseudomonas aeruginosa
Text: as §1, §2

P. aeruginosa 799/WT = assay: as above; format: cell-based; settings: Pseudomonas aeruginosa
Text: as §1, §2

P. aeruginosa BA = assay: as above; format: cell-based; settings: Pseudomonas aeruginosa
Text: as §1, §2

P. aeruginosa MK1184 = assay: as above; format: cell-based; settings: Pseudomonas aeruginosa
Text: as §1, §2

P. mirabilis 2117 = assay: as above; format: cell-based; settings: Proteus mirabilis
Text: as §1, §2

P. vulgaris 1028 = assay: as above; format: cell-based; settings: Proteus vulgaris
Text: as §1, §2

S. aureus 6538 = assay: as above; format: cell-based; settings: Staphylococcus aureus
Text: as §1, §2

S. marcescens 69438 = assay: as above; format: cell-based; settings: Serratia marcescens
Text: as §1, §2

S. pneumoniae BA = assay: as above; format: cell-based; settings: Streptococcus pneumoniae
Text: as §1, §2

S. pyogenes 15 = assay: as above; format: cell-based; settings: Streptococcus pyogenes
Text: as §1, §2

E. coli 25922 [2] = assay: Experimental systemic septicaemia in the mouse; format: in vivo; settings: 96 h
Outline: (§3)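 Albino mice (16-20 g) infected i.p. with overnight culture at about 5-100× the 48 h LD50; groups of 5. Compounds given s.c. in 2% Tween 80 at 1 and 3 h post-infection (P. aeruginosa also at 5 h). ED50 (mg/kg s.c.) by Probit from 4-day survival.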

[3] = tested on: Pseudomonas aeruginosa BA; assay: Experimental systemic septicaemia in the mouse; format: in vivo; settings: sc, 96 h
Outline: as §3

S. aureus Schoch = assay: Experimental systemic septicaemia in the mouse; format: in vivo; settings: Staphylococcus aureus, sc, 96 h
Outline: as §3

E. cloacae P99 = assay: Minimum inhibitory concentration in vitro, agar dilution method; format: cell-based; settings: Enterobacter cloacae
Text: as §1, §2

E. aerogenes CF153 = assay: as above; format: cell-based; settings: Klebsiella aerogenes; E. aerogenes CF153, agar dilution; read-out: MIC
Text: as §1, §2

[4] = C. freundii 902, agar dilution, read-out: MIC
[5] = E. cloacae 908R, agar dilution, read-out: MIC
[6] = E. cloacae 908SSi, agar dilution, read-out: MIC
[7] = E. coli 25922, agar dilution, read-out: MIC
[8] = K. oxytoca 1082, agar dilution, read-out: MIC
[9] = K. pneumoniae 418, agar dilution, read-out: MIC
[10] = P. aeruginosa 27853, agar dilution, read-out: MIC
[11] = P. aeruginosa 799/61, agar dilution, read-out: MIC
[12] = P. aeruginosa 799/WT, agar dilution, read-out: MIC
[13] = P. aeruginosa BA, agar dilution, read-out: MIC
[14] = P. aeruginosa MK1184, agar dilution, read-out: MIC
[15] = P. mirabilis 2117, agar dilution, read-out: MIC
[16] = P. vulgaris 1028, agar dilution, read-out: MIC
[17] = S. aureus 6538, agar dilution, read-out: MIC
[18] = S. marcescens 69438, agar dilution, read-out: MIC
[19] = S. pyogenes 15, agar dilution, read-out: MIC
[20] = Escherichia coli, sc, E. coli 25922, albino mice, s.c. 1 and 3 hours after infection, survival after 4 days, read-out: ED50
[21] = P. aeruginosa BA, albino mice, s.c. 1, 3 and 5 hours after infection, survival after 4 days, read-out: ED50
[22] = S. aureus Schoch, albino mice, s.c. 1 and 3 hours after infection, survival after 4 days, read-out: ED50

| Compound | MIC (C. freundii 902; [4]) [µg/mL] | MIC (E. cloacae 908R; [5]) [µg/mL] | MIC (E. cloacae 908SSi; [6]) [µg/mL] | MIC (E. cloacae P99) [µg/mL] | MIC (E. coli 25922 [1]; [7]) [µg/mL] | MIC (K. oxytoca 1082; [8]) [µg/mL] | MIC (K. pneumoniae 418; [9]) [µg/mL] | MIC (P. aeruginosa 27853; [10]) [µg/mL] | MIC (P. aeruginosa 799/61; [11]) [µg/mL] | MIC (P. aeruginosa 799/WT; [12]) [µg/mL] | MIC (P. aeruginosa BA; [13]) [µg/mL] | MIC (P. aeruginosa MK1184; [14]) [µg/mL] | MIC (P. mirabilis 2117; [15]) [µg/mL] | MIC (P. vulgaris 1028; [16]) [µg/mL] | MIC (S. aureus 6538; [17]) [µg/mL] | MIC (S. marcescens 69438; [18]) [µg/mL] | MIC (S. pyogenes 15; [19]) [µg/mL] | ED50 (E. coli 25922 [2]; [20]) [mg/kg] | ED50 [3, 21] [mg/kg] | ED50 (S. aureus Schoch; [22]) [mg/kg] | also measured |
| --- | --- | --- | --- | --- | --- | --- | --- | --- | --- | --- | --- | --- | --- | --- | --- | --- | --- | --- | --- | --- | --- |
| Cc1cc(SCC2=C(C(=O)[O-])N3C(=O)[C@@H](NC(=O)/C(=N\OC(C)(C)C(=O)NNC(=O)c4ccc(O)c(O)c4)c4csc(N)n4)[C@H]3SC2)n2nc(CNS(=O)(=O)c3ccc(O)c(O)c3)nc2n1.[Na+] [Example 42, (6R,7R)-7-[(Z)-2-(2-amino-4-thiazolyl)-2-[[1-[3-(3,4-dihydroxybenzoyl)carbazoyl]-1-methylethoxy]imino]acetamido]-3-[[[2-[(3,4-dihydroxybenzenesulphonamido)methyl]-5-methyl-s-triazolo[1,5-a]pyrimidin-7-yl]thio]methyl]-8-oxo-5-thia-1-azabicyclo[4.2.0]oct-2-ene-2-carboxylic acid sodium salt (1:1)] |  |  |  |  |  |  |  |  |  |  |  |  |  |  |  |  |  |  |  |  | MIC (C. freundii 902; 902): < 0.1 µg/mL; MIC (E. cloacae 908R; 908R): 0.5 µg/mL; MIC (E. cloacae 908SSi; 908SSI): 4 µg/mL; MIC (E. coli 25922 [1]; 25922): < 0.1 µg/mL; MIC (K. oxytoca 1082; 1082): < 0.1 µg/mL; MIC (K. pneumoniae 418; 418): < 0.1 µg/mL; MIC (P. aeruginosa 27853; 27853): 0.25 µg/mL; MIC (P. aeruginosa 799/61; 799/61): < 0.1 µg/mL; MIC (P. aeruginosa 799/WT; 799/WT): < 0.1 µg/mL; MIC (P. aeruginosa BA): < 0.1 µg/mL; MIC (P. aeruginosa MK1184; MK1184): < 0.1 µg/mL; MIC (P. mirabilis 2117; 2117): 0.12 µg/mL; MIC (P. vulgaris 1028; 1028): 0.25 µg/mL; MIC (S. aureus 6538; 6538): 32 µg/mL; MIC (S. marcescens 69438; 69438): 0.12 µg/mL; MIC (S. pneumoniae BA): 4 µg/mL; MIC (S. pyogenes 15; 15): 8 µg/mL; ED50 (E. coli 25922 [2]; Escherichia coli, 25922, sc): 0.005 mg/kg; ED50 [3]: 0.017 mg/kg; ED50 (S. aureus Schoch): 10 mg/kg |
| Cc1cc(SCC2=C(C(=O)O)N3C(=O)[C@@H](NC(=O)/C(=N\OCc4ccc(O)c(O)c4F)c4csc(N)n4)[C@H]3SC2)n2nc(CNS(=O)(=O)c3ccc(O)c(O)c3)nc2n1 [Example 5, 7-[(Z)-2-(2-amino-4-thiazolyl)-2-[[(2-fluoro-3,4-dihydroxybenzyl)oxy]imino]acetamido]-3-[[[2-[(3,4-dihydroxybenzenesulphonamido)methyl]-5-methyl-s-triazolo[1,5-a]pyrimidin-7-yl]thio]methyl]-8-oxo-5-thia-1-azabicyclo[4.2.0]oct-2-ene-2-carboxylic acid sodium salt (1:1)] | < 0.1 | 0.25 | 1 | 4 | < 0.1 | 0.25 | < 0.1 | 0.12 | < 0.1 | < 0.1 | 0.12 | < 0.1 | 0.25 | 0.5 | 4 | < 0.1 | 0.5 | < 0.1 | 0.034 | 3.1 |  |
| Cc1cc(SCC2=C(C(=O)O)N3C(=O)[C@@H](NC(=O)/C(=N\OCc4ccc(O)c(O)c4)c4csc(N)n4)[C@H]3SC2)n2nc(CNS(=O)(=O)c3ccc(O)c(O)c3)nc2n1 [Example 4, (6R,7R)-7-[(Z)-2-(2-amino-4-thiazolyl)-2-[[(3,4-dihydroxybenzyl)oxy]imino]acetamido]-3-[[[2-[(3,4-dihydroxybenzenesulphonamido)methyl]-5-methyl-s-triazolo[1,5-a]pyrimidin-7-yl]thio]methyl]-8-oxo-5-thia-1-azabicyclo[4.2.0]oct-2-ene-2carboxylic acid] | < 0.1 | 1 (≈ 1.15 µM) | 4 (≈ 4.59 µM) | 32 (≈ 36.7 µM) | < 0.1 | 16 (≈ 18.4 µM) | < 0.1 | 0.5 (≈ 0.574 µM) | 0.12 (≈ 0.138 µM) | 0.25 (≈ 0.287 µM) | < 0.1 | 0.25 (≈ 0.287 µM) | 0.25 (≈ 0.287 µM) | 1 (≈ 1.15 µM) | 4 (≈ 4.59 µM) | 0.12 (≈ 0.138 µM) | 0.25 (≈ 0.287 µM) | < 0.1 | 0.12 | 3.1 |  |
| Nc1nc(/C(=N/OCc2nc(=O)c(O)c[nH]2)C(=O)N[C@@H]2C(=O)N3C(C(=O)O)=C(CSc4nc(-c5ccccc5)ncc4-c4ccc(O)c(O)c4)CS[C@H]23)cs1 [Example 16, (6R,7R)-7-[(Z)-2-(2-amino-4-thiazolyl)-2-[[(1,4-dihydro-5-hydroxy-4-oxo-2-pyrimidinyl)methoxy]imino]acetamido]-3-[[[5-(3,4-dihydroxyphenyl)-2-phenyl-4-pyrimidinyl]thio]methyl]-8-oxo-5-thia-1-azabicyclo[4.2.0]oct-2-ene-2-carboxylic acid] | 0.12 (≈ 0.15 µM) | 0.25 (≈ 0.312 µM) | 8 (≈ 9.98 µM) | 8 (≈ 9.98 µM) | < 0.1 | 0.25 (≈ 0.312 µM) | < 0.1 | 1 (≈ 1.25 µM) | < 0.1 | 0.5 (≈ 0.624 µM) | 4 (≈ 4.99 µM) | > 32 | 0.25 (≈ 0.312 µM) | 0.25 (≈ 0.312 µM) | 32 (≈ 39.9 µM) | 1 (≈ 1.25 µM) | 0.25 (≈ 0.312 µM) | < 0.5 | > 2 |  | MIC (E. aerogenes CF153): 0.12 µg/mL (≈ 0.15 µM) |
| Cc1cc(SCC2=C(C(=O)[O-])N3C(=O)[C@@H](NC(=O)/C(=N\OCc4ccc(O)c(O)c4)c4csc(N)n4)[C@H]3SC2)n2nc(COC(=O)c3ccc(O)c(O)c3)nc2n1.[Na+] [Example 8, (6R,7R)-7-[(Z)-2-(2-amino-4-thiazolyl)-2-[[(3,4-dihydroxybenzyl)oxy]imino]acetamido]-3-[[[2-[[(3,4-dihydroxybenzoyl)oxy]methyl]-5-methyl-s-triazolo[1,5-a]pyrimidin-7-yl]thio]methyl]-8-oxo-5-thia-1-azabicyclo[4.2.0]oct-2-ene-2-carboxylic acid sodium salt (1:1)] |  |  |  | 8 |  |  |  |  |  |  |  |  |  |  |  |  |  |  |  |  | MIC (C. freundii 902; 902): < 0.1 µg/mL; MIC (E. cloacae 908R; 908R): 0.25 µg/mL; MIC (E. cloacae 908SSi; 908SSI): 2 µg/mL; MIC (E. coli 25922 [1]; 25922): < 0.1 µg/mL; MIC (K. oxytoca 1082; 1082): < 0.1 µg/mL; MIC (K. pneumoniae 418; 418): < 0.1 µg/mL; MIC (P. aeruginosa 27853; 27853): 0.12 µg/mL; MIC (P. aeruginosa 799/61; 799/61): < 0.1 µg/mL; MIC (P. aeruginosa 799/WT; 799/WT): < 0.1 µg/mL; MIC (P. aeruginosa BA): < 0.1 µg/mL; MIC (P. aeruginosa MK1184; MK1184): < 0.1 µg/mL; MIC (P. mirabilis 2117; 2117): < 0.1 µg/mL; MIC (P. vulgaris 1028; 1028): < 0.1 µg/mL; MIC (S. aureus 6538; 6538): 4 µg/mL; MIC (S. marcescens 69438; 69438): 0.12 µg/mL; MIC (S. pyogenes 15; 15): 1 µg/mL; ED50 (E. coli 25922 [2]; Escherichia coli, 25922, sc): < 0.1 mg/kg; ED50 [3]: 0.45 mg/kg; ED50 (S. aureus Schoch): 2 mg/kg |
| Cc1cc(SCC2=C(C(=O)O)N3C(=O)[C@@H](NC(=O)/C(=N\OC(C)(C)C(=O)NNC(=O)c4ccc(O)c(O)c4)c4csc(N)n4)[C@H]3SC2)n2nc(CS(=O)(=O)c3ccc(O)c(O)c3)nc2n1 [Example 44] | 0.25 (≈ 0.258 µM) | 1 (≈ 1.03 µM) | 8 (≈ 8.25 µM) |  | < 0.1 | < 0.1 | < 0.1 | 0.5 (≈ 0.515 µM) | < 0.1 | 0.12 (≈ 0.124 µM) | < 0.1 | 0.12 (≈ 0.124 µM) | 0.25 (≈ 0.258 µM) | 0.25 (≈ 0.258 µM) | 32 (≈ 33 µM) | 0.25 (≈ 0.258 µM) | 8 (≈ 8.25 µM) | < 0.05 | < 0.01 | > 12 | MIC (S. pneumoniae BA; S. pneumoniae BA, agar dilution, read-out: MIC): 1 µg/mL (≈ 1.03 µM) |

From patent US5438052A, “Cephalosporin derivatives” (Hoffmann-La Roche Inc., priority 1991, dated 1995)
